From ChEMBL document CHEMBL3856276, “Design, Synthesis, and Biological Evaluation of Novel Tetrahydroprotoberberine Derivatives (THPBs) as Selective α1A-Adrenoceptor Antagonists” (J Med Chem, 2016) come the findings set out here.

Data set [1] has as its target Voltage-gated inwardly rectifying potassium channel KCNH2 (Homo sapiens, UniProt Q12809). The experiment in a line: Inhibition of human ERG.
The target of data set [2] is T1, Alpha-1D adrenergic receptor (Homo sapiens, UniProt P25100).
T1 sequence (P25100 whole entry): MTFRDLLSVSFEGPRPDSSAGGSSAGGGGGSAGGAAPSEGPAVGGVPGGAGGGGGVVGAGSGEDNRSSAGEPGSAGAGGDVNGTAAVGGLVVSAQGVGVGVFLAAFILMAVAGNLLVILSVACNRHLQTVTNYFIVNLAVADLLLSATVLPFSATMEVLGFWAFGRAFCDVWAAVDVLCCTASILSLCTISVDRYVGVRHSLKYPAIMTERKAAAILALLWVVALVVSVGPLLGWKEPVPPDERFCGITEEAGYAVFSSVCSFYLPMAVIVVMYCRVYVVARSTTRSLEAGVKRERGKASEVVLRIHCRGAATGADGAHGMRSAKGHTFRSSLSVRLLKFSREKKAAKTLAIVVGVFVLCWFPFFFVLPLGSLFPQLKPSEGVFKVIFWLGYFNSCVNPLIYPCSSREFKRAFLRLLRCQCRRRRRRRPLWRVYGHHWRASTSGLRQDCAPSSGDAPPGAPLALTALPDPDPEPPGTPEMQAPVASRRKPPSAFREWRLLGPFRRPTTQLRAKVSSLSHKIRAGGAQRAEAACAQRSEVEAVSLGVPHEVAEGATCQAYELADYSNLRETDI
Description: Antagonist activity at human full-length N-terminal SNAP-tagged alpha1D adrenoceptor expressed in HEK293 cells assessed as inhibition of agonist-induced calcium mobilization preincubated for 10 mins followed by agonist addition by fluo-4 AM dye-based assay

The target of data set [3] is T2, Alpha-1B adrenergic receptor (Rattus norvegicus, UniProt P15823).
T2 sequence (P15823 whole entry): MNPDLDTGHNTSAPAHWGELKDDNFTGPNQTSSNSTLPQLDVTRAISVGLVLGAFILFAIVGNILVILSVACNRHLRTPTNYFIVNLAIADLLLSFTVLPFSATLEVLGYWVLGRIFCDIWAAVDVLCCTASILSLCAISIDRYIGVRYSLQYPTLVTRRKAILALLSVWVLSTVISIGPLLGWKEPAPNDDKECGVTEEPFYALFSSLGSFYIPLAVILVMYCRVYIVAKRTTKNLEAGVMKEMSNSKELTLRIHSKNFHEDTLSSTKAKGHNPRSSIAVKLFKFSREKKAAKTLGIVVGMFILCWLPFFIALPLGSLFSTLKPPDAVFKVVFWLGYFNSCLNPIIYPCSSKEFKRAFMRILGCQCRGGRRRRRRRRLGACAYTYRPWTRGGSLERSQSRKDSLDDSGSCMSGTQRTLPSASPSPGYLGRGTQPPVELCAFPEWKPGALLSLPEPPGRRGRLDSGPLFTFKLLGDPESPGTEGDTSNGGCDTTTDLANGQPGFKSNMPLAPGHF
Kind of data set: Antagonist activity at alpha1B adrenoceptor in Sprague-Dawley rat aorta assessed as inhibition of norepinephrine-induced smooth muscle contraction after 20 mins.

Data set [4] is filed under the species Homo sapiens. Kind of data set: Selectivity ratio of IC50 for human full-length N-terminal SNAP-tagged alpha1B adrenoceptor to IC50 for human full-length N-terminal SNAP-tagged alpha1A adrenoceptor.
The test system of data set [5] is Rattus norvegicus. Kind of data set: Inhibition of micturition frequency in po dosed Sprague-Dawley rat benign prostatic hyperplasia model administered 20 mins followed by distilled watering loading measured for 2 hrs. Type of data set: functional.
Data set [6] addresses T3, Alpha-1A adrenergic receptor (Homo sapiens) (UniProt P35348).
T3 sequence (whole entry): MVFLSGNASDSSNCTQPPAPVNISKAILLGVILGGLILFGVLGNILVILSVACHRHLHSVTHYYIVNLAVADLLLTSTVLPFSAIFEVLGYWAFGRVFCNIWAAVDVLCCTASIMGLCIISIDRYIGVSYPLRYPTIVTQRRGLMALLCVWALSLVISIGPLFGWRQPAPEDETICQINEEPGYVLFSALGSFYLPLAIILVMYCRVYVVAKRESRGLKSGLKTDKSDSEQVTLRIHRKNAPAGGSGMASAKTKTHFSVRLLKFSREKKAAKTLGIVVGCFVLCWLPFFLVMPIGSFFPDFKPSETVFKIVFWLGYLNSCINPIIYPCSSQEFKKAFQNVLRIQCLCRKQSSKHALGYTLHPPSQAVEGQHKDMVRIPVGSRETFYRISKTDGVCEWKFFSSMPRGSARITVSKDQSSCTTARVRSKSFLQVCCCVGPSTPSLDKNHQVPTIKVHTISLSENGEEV
The experiment in a line: Antagonist activity at human full-length N-terminal SNAP-tagged alpha1A adrenoceptor expressed in HEK293 cells assessed as inhibition of agonist-induced calcium mobilization at 10 uM preincubated for 10 mins followed by agonist addition by fluo-4 AM dye-based assay relative to control. Type of data set: functional, cell-based.

Data set [7] is filed under the species Homo sapiens. The experiment in a line: Selectivity ratio of IC50 for human full-length N-terminal SNAP-tagged alpha1D adrenoceptor to IC50 for human full-length N-terminal SNAP-tagged alpha1A adrenoceptor.
Data set [8] deals with Rattus norvegicus. The experiment in a line: Increase in voided volume in po dosed Sprague-Dawley rat benign prostatic hyperplasia model administered 20 mins followed by distilled watering loading measured for 2 hrs. Type of data set: functional.
In data set [9] the target is T4, Alpha-1B adrenergic receptor (Homo sapiens, UniProt P35368).
T4 sequence (P35368 whole entry): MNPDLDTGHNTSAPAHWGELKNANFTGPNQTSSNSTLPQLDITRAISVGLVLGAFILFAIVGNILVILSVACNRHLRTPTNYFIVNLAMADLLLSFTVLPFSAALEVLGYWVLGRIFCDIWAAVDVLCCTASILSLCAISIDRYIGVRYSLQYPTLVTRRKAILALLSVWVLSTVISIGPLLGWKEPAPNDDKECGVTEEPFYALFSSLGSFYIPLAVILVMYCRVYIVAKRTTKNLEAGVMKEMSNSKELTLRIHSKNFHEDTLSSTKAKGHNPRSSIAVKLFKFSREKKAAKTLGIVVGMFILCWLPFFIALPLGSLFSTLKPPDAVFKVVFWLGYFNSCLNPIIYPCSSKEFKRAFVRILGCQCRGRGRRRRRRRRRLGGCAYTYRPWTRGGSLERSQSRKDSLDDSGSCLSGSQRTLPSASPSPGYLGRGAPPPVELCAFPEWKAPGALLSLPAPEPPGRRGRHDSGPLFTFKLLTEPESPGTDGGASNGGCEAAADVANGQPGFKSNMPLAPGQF
Description: Antagonist activity at human full-length N-terminal SNAP-tagged alpha1B adrenoceptor expressed in HEK293 cells assessed as inhibition of agonist-induced calcium mobilization preincubated for 10 mins followed by agonist addition by fluo-4 AM dye-based assay

For data set [10], the target named is T5, Alpha-1A adrenergic receptor (Rattus norvegicus, UniProt P43140).
T5 sequence (P43140 whole entry): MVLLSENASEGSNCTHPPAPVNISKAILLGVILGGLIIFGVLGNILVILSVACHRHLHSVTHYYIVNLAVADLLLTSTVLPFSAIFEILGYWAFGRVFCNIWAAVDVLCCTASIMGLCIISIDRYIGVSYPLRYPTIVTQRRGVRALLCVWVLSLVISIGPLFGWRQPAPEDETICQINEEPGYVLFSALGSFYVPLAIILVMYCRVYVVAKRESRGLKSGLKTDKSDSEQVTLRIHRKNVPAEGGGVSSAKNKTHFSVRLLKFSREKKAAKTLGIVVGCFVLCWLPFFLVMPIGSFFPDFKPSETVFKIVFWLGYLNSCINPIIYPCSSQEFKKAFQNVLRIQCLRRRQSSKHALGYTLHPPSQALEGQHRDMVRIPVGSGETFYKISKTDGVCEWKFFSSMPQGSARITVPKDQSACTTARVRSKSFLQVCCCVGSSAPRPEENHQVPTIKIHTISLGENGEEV
The experiment in a line: Antagonist activity at alpha1A adrenoceptor in Sprague-Dawley rat urethra assessed as inhibition of norepinephrine-induced smooth muscle contraction after 20 mins.

A short description of data set [11]: Selectivity ratio of IC50 for alpha1B adrenoceptor in Sprague-Dawley rat aorta to IC50 for alpha1A adrenoceptor in Sprague-Dawley rat urethra.
Data set [12] has as its target T6, Alpha-1A adrenergic receptor (Homo sapiens, UniProt P35348).
T6 sequence (P35348 whole entry): T3 sequence (whole entry)
Description: Antagonist activity at human full-length N-terminal SNAP-tagged alpha1A adrenoceptor expressed in HEK293 cells assessed as inhibition of agonist-induced calcium mobilization preincubated for 10 mins followed by agonist addition by fluo-4 AM dye-based assay

A short description of data set [13]: Toxicity in patient assessed as orthostatic hypotension. The following applies: human, in vivo.

Voltage-gated inwardly rectifying potassium channel KCNH2, sequence (Q12809 whole entry): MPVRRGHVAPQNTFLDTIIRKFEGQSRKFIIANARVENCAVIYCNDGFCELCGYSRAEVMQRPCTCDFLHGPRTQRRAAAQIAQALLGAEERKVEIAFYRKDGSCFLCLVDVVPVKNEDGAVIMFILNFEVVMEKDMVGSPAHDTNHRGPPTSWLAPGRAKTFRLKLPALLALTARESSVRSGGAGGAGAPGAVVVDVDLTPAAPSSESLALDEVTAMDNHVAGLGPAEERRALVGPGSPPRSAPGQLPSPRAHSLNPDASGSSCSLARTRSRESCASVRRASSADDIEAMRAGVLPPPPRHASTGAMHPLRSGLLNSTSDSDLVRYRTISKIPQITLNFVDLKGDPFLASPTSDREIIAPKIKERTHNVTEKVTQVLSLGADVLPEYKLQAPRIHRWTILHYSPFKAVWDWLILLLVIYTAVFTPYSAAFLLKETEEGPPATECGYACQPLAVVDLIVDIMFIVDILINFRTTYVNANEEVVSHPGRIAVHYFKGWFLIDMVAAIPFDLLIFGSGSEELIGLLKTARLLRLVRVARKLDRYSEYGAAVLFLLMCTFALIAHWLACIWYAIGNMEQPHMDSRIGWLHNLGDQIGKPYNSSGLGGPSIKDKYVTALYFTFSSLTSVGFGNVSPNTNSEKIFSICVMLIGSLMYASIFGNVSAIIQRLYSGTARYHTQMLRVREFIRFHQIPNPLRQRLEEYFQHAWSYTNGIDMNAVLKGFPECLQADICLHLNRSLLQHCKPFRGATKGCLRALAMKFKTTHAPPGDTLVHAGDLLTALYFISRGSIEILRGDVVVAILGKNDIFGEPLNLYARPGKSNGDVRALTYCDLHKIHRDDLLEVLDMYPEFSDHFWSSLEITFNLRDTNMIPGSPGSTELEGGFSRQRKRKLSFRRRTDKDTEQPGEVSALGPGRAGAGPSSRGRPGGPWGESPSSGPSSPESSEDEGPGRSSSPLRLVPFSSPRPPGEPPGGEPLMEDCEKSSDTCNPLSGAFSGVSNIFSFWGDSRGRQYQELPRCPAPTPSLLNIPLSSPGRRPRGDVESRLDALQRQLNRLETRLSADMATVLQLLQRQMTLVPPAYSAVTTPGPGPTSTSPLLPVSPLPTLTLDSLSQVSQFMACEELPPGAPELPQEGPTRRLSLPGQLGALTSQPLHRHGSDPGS

As usually defined, the IC50 is the concentration needed to halve the response being measured. Broadly, the inhibition is the change of the read-out against control, counted positive when it falls. Consider `COc1ccc2[nH]c3c(c2c1)CC1c2cc4c(cc2CCN1C3)OCO4` (centres undefined), for which the 50% inhibitory concentration (IC50) was 16500 nM in data set [1]; 4040 nM in [2]; above 1000 nM in data set [3]; above 10000 nM in [9]; 45.4 nM in [10]; 17.6 nM in data set [12]. Also, the Ratio IC50 in the data set listed under Homo sapiens [4] was above 568; in the data set filed under Homo sapiens [7], 229; in data set [11], above 22.02. Further, the minimal effective dose is 10 mg/kg in the data set with Rattus norvegicus [5] (read-out: MED) and 3 mg/kg in the data set with Rattus norvegicus [8] (read-out: MED). In addition, the inhibition in data set [6] is 99%.
As to `C[C@H](Cc1cc2c(c(C(N)=O)c1)N(CCCO)CC2)NCCOc1ccccc1OCC(F)(F)F` [SILODOSIN], the IC50 in data set [1] is 8200 nM; in [3], 90.1 nM; in data set [10], 0.8 nM. In addition, the values for the inhibition entry (in the data set with Rattus norvegicus [5]; in data set [6]) were “Dose-dependent effect” and 100%, respectively. For the same compound, the Activity in data set [13] is 2.6%; with Rattus norvegicus [8] it was “Dose-dependent effect”.
